This note sets out measurements from patent US8802674B2, “Aminopyrimidine derivatives as LRRK2 modulators” (Genentech, Inc., priority 2011, dated 2014).

Sequence of LRRK2 (Q5S007 970-2527 G2019S limits assumed): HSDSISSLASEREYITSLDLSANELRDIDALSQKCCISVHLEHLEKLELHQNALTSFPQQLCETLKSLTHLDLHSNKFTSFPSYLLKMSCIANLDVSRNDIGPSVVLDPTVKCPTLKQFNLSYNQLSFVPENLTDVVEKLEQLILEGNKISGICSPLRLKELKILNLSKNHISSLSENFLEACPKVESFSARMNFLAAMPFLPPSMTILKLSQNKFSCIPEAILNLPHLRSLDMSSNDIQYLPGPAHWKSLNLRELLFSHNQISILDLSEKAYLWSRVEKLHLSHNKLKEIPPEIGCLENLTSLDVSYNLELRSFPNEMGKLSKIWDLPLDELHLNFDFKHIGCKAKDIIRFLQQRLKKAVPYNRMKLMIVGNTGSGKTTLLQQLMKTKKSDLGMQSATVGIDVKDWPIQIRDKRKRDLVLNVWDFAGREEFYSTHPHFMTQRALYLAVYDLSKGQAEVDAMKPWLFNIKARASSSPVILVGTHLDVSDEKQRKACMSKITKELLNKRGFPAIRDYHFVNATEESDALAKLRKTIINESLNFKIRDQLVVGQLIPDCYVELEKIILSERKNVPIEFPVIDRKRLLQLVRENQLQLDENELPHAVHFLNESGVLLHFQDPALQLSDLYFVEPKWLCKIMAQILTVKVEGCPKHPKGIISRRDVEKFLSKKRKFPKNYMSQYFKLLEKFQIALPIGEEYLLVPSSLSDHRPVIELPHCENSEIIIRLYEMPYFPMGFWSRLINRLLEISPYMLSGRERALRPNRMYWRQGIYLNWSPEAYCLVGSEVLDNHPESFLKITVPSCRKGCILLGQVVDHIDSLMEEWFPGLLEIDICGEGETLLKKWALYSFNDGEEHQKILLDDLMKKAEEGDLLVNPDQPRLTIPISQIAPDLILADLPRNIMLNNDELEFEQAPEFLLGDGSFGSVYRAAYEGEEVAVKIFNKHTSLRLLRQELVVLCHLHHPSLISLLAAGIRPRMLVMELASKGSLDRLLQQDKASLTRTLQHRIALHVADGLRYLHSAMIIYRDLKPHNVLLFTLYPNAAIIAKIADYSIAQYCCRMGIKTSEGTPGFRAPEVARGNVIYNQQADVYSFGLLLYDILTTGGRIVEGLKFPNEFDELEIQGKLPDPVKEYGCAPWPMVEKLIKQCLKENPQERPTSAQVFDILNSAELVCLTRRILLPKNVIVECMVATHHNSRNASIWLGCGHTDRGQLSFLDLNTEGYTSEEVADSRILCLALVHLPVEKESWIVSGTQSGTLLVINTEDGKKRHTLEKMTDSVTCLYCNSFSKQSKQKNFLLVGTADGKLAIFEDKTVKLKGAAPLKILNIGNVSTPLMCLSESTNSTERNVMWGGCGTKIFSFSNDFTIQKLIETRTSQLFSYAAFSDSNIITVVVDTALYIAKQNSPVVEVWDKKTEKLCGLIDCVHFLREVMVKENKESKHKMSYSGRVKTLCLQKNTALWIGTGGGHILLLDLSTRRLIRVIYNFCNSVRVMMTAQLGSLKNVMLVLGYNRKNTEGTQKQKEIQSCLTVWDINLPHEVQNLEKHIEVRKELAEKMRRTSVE

One assay deals with LRRK2 (Homo sapiens (Human), UniProt Q5S007, G2019S). Nature of the assay: In Vitro LRRK2 LabChip Assay. The format is biochemical. Particulars: Table 4. The procedure, abridged:
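Potency (Ki in μM, IC50 or % inhibition) derived from capillary-electrophoresis separation of phospho- and unphosphorylated fluorescent peptide, with Ki fitted by a tight-binding model.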
The compound `CNc1nc(Nc2ccc(C(=O)N3CCC(F)C3)cc2OC)ncc1C#N` (stereo in doubt) [Example 210, 2-[4-((R)-3-Fluoropyrrolidine-1-carbonyl)-2-methoxy-phenylamino]-4-methylamino-pyrimidine-5-carbonitrile] displayed an inhibition constant Ki of 9.3 nM.
In turn, `CNc1nc(Nc2ccc(CC(=O)N3CCOCC3)cc2OC)ncc1Cl` [Example 222, 2-[4-(5-Chloro-4-methylamino-pyrimidin-2-ylamino)-3-methoxy-phenyl]-1-morpholin-4-yl-ethanone] yielded an inhibitory constant (Ki) of 9 nM.
Consider `COc1cc(C(=O)N2CCOCC2)ccc1Nc1ncc(Cl)c(NC2(C)CCC2)n1` [Example 91, {4-[5-Chloro-4-(1-methyl-cyclobutylamino)-pyrimidin-2-ylamino]-3-methoxy-phenyl}-morpholin-4-yl-methanone], for which affinity was put at a Ki of 2.4 nM.
On the same count and under the same terms, as for `CNc1nc(Nc2cc(OC)c(C(=O)NC3COC3)cc2Cl)ncc1Cl` [Example 153, 5-Chloro-4-(5-chloro-4-methylamino-pyrimidin-2-ylamino)-2-methoxy-N-oxetan-3-yl-benzamide], the figure is 27.4 nM.
Same read-out and setting: for `CNc1nc(Nc2ccc(C(=O)N3CC[C@@H](O)C3)cc2OC)ncc1Br` [Example 77, [4-(5-Bromo-4-methylamino-pyrimidin-2-ylamino)-3-methoxy-phenyl]-((R)-3-hydroxy-pyrrolidin-1-yl)-methanone] the value was 5.1 nM.
On to `CCNc1nc(Nc2cc(OC)c(C(=O)N3CCOCC3)cc2F)ncc1C(F)(F)F` [Example 238, (4-(4-(ethylamino)-5-(trifluoromethyl)pyrimidin-2-ylamino)-5-fluoro-2-methoxyphenyl) (morpholino) methanone], for which affinity was put at a Ki of 1.4 nM.
Still for that read-out and setting: as for `CNc1nc(Nc2ccc(C(=O)N3CCOCC3)cc2OC2CC2)ncc1Cl` [Example 217, [4-(5-Chloro-4-methylamino-pyrimidin-2-ylamino)-3-cyclopropoxy-phenyl]-morpholin-4-yl-methanone], the figure is 2 nM; as for `CNc1nc(Nc2ccc(C(=O)N3CCNCC3)cc2OC)ncc1Cl` [Example 47, [4-(5-Chloro-4-methylamino-pyrimidin-2-ylamino)-3-methoxy-phenyl]-piperazin-1-yl-methanone], 2.8 nM.
In turn, `CNc1nc(Nc2cc(F)c(C(=O)N3C[C@@H](C)O[C@@H](C)C3)cc2OC)ncc1C(F)(F)F` [Example 249, ((2S,6R)-2,6-dimethylmorpholino) (2-fluoro-5-methoxy-4-(4-(methylamino)-5-(trifluoromethyl)pyrimidin-2-ylamino)phenyl) methanone] registered a Ki of 8 nM.
`CNc1nc(Nc2ccc(C(=O)N(C)C(C)C)cc2OC)ncc1C#N` [Example 213, 4-(5-Cyano-4-methylamino-pyrimidin-2-ylamino)-N-isopropyl-3-methoxy-N-methyl-benzamide] came in with an inhibition constant Ki of 6.8 nM.
On to `CNc1nc(Nc2cc(OC)c(C(=O)N3CCC(C#N)CC3)cc2Cl)ncc1Cl` [Example 167, l-[5-Chloro-4-(5-chloro-4-methylamino-pyrimidin-2-ylamino)-2-methoxy-benzoyl]-piperidine-4-carbonitrile], for which affinity was put at a Ki of 3.3 nM.

Staying with this assay, now noted: Table 6.
As to `CNc1nc(Nc2cc(OC)c(C(=O)N3CC(C)OC(C)C3)cc2Cl)ncc1C(F)(F)F` (centres unmarked) [Example 267, [5-Chloro-2-methoxy-4-(4-methylamino-5-trifluoromethyl-pyrimidin-2-ylamino)-phenyl]-(2,6-dimethyl-morpholin-4-yl)-methanone], the affinity corresponds to a Ki of 8 nM. That is a single-digit nanomolar value.
Same read-out and setting: as for `CNc1nc(Nc2ccc(C(=O)N3CCOCC3)cc2Br)ncc1C(F)(F)F` [Example 290, [3-Bromo-4-(4-methylamino-5-trifluoromethyl-pyrimidin-2-ylamino)-phenyl]-morpholin-4-yl-methanone], the figure is 7.5 nM.
Same read-out and setting: as for `CNc1nc(Nc2ccc(C(=O)N3CCOCC3)cc2OC2COC2)ncc1Cl` [Example 284, [4-(5-Chloro-4-methylamino-pyrimidin-2-ylamino)-3-(oxetan-3-yloxy)-phenyl]-morpholin-4-yl-methanone], the figure is 12.8 nM.

As usually defined, the Ki is the dissociation constant of the complex between target and ligand, obtained from inhibition or displacement.
